Laboratory results: ChEMBL document CHEMBL1201862, “PubChem BioAssay data set” (2004)
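1) Cells in 96-well plates. 2) Compound, 48 h, 5 concentrations. 3) Linear interpolation between surrounding doses. 4) Unreached endpoint = highest concentration. At the GI50, growth is halved.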 Active and inactive are the calls of the source. Cut-off read from the data, not from the text of the source: active = GI50 up to about 1.1 µM and inactive = higher.

Columns and labels:
Assay in all cases: inhibition of tumour cell growth, NCI panel, 48 h
EKVX = system: EKVX
HL-60 = system: HL-60
HOP-18 = system: HOP-18
LOX IMVI = system: LOX IMVI
Malme-3M = system: Malme-3M
NCI-H226 = system: NCI-H226
OVCAR-4 = system: OVCAR-4
RPMI-8226 = system: RPMI-8226
SF-268 = system: SF-268
SK-MEL-5 = system: SK-MEL-5
SNB-75 = system: SNB-75
TK-10 = system: TK-10
U-251 = system: U-251
UO-31 = system: UO-31
HCT-15 = system: HCT-15
Hs-578T = system: Hs-578T
MDA-MB-231 = system: MDA-MB-231
NCI/ADR-RES = system: NCI/ADR-RES
T47D = system: T47D
BT-549 = system: BT-549

## CCc1ccccc1NC(=O)C(=O)C(C#N)c1ccccc1Cl (configuration not stated)
EKVX
  GI50: > 100 µM (inactive)
HL-60
  GI50: > 100 µM (inactive)
HOP-18
  GI50: > 100 µM (inactive)
LOX IMVI
  GI50: 3.36 µM (inactive)
Malme-3M
  GI50: > 100 µM (inactive)
NCI-H226
  GI50: > 100 µM (inactive)
OVCAR-4
  GI50: > 100 µM (inactive)
RPMI-8226
  GI50: > 100 µM (inactive)
SF-268
  GI50: > 100 µM (inactive)
SK-MEL-5
  GI50: > 100 µM (inactive)
SNB-75
  GI50: > 100 µM (inactive)
TK-10
  GI50: 2.55 µM (inactive)
U-251
  GI50: > 100 µM (inactive)
UO-31
  GI50: > 100 µM (inactive)

## O=C1c2cc(CCl)sc2C(=O)c2ccsc21
EKVX
  GI50: 1.24 µM (inactive)
HCT-15
  GI50: 0.393 µM
HL-60
  GI50: 0.0559 µM (active)
HOP-18
  GI50: 0.264 µM (active)
Hs-578T
  GI50: 233 nM (active)
LOX IMVI
  GI50: < 0.0248 µM (active)
MDA-MB-231
  GI50: 232 nM (active)
Malme-3M
  GI50: 0.0387 µM (active)
NCI-H226
  GI50: 1.69 µM (inactive)
NCI/ADR-RES
  GI50: 200 nM (active)
OVCAR-4
  GI50: 0.184 µM (active)
RPMI-8226
  GI50: 0.184 µM (active)
SF-268
  GI50: 0.195 µM (active)
SK-MEL-5
  GI50: 0.0416 µM (active)
SNB-75
  GI50: 0.192 µM (active)
T47D
  GI50: 241 nM (active)
TK-10
  GI50: 1.95 µM (inactive)
U-251
  GI50: 0.333 µM (active)
UO-31
  GI50: 0.301 µM (active)

## O=C1C(Cl)C(c2ccc(Cl)cc2)N1n1cnc2ccccc2c1=O (configuration not stated)
EKVX
  GI50: 14.5 µM (inactive)
HCT-15
  GI50: 92 µM
HL-60
  GI50: 39 µM (inactive)
HOP-18
  GI50: 57.5 µM (inactive)
LOX IMVI
  GI50: 70.5 µM (inactive)
Malme-3M
  GI50: > 100 µM (inactive)
NCI-H226
  GI50: > 100 µM (inactive)
OVCAR-4
  GI50: > 100 µM (inactive)
RPMI-8226
  GI50: 40.6 µM (inactive)
SF-268
  GI50: > 100 µM (inactive)
SK-MEL-5
  GI50: > 100 µM (inactive)
SNB-75
  GI50: 26.2 µM (inactive)
TK-10
  GI50: > 100 µM (inactive)
U-251
  GI50: > 100 µM (inactive)
UO-31
  GI50: 59.7 µM (inactive)

## C#CC1(O)CCC2[C@@H]3CCc4cc(Oc5nc(F)nc(-c6c7ccccc7cn6C)n5)ccc4C3CC[C@@]21C (some centres not stated)
EKVX
  GI50: > 100 µM (inactive)
HCT-15
  GI50: > 72.3 µM
HL-60
  GI50: > 70.5 µM (inactive)
HOP-18
  GI50: > 100 µM (inactive)
LOX IMVI
  GI50: > 100 µM (inactive)
Malme-3M
  GI50: > 100 µM (inactive)
NCI-H226
  GI50: > 100 µM (inactive)
OVCAR-4
  GI50: > 100 µM (inactive)
RPMI-8226
  GI50: > 47.4 µM (inactive)
SF-268
  GI50: > 88.1 µM (inactive)
SNB-75
  GI50: > 91.2 µM (inactive)
TK-10
  GI50: > 100 µM (inactive)
U-251
  GI50: > 100 µM (inactive)
UO-31
  GI50: > 62.1 µM (inactive)

## COc1ccc2nc(NC(=O)C(=O)C(C#N)c3ccc(CC#N)cc3)sc2c1 (configuration not stated)
EKVX
  GI50: 33.5 µM (inactive)
HCT-15
  GI50: > 100 µM
HL-60
  GI50: > 100 µM (inactive)
HOP-18
  GI50: > 100 µM (inactive)
LOX IMVI
  GI50: > 100 µM (inactive)
Malme-3M
  GI50: > 100 µM (inactive)
NCI-H226
  GI50: > 100 µM (inactive)
OVCAR-4
  GI50: > 100 µM (inactive)
RPMI-8226
  GI50: > 100 µM (inactive)
SF-268
  GI50: > 100 µM (inactive)
SK-MEL-5
  GI50: > 100 µM (inactive)
SNB-75
  GI50: > 100 µM (inactive)
TK-10
  GI50: > 100 µM (inactive)
U-251
  GI50: > 100 µM (inactive)
UO-31
  GI50: 54.6 µM (inactive)

## CS(=O)(=O)OCCN(CCOS(C)(=O)=O)c1ccc(/C=N/N=c2/nc[nH]c3nc[nH]c23)cc1
EKVX
  GI50: 33.2 µM (inactive)
HCT-15
  GI50: 31 µM
HL-60
  GI50: 6.04 µM (inactive)
HOP-18
  GI50: 34.6 µM (inactive)
LOX IMVI
  GI50: 15.1 µM (inactive)
Malme-3M
  GI50: 27 µM (inactive)
NCI-H226
  GI50: 19.3 µM (inactive)
OVCAR-4
  GI50: 22.7 µM (inactive)
RPMI-8226
  GI50: 15.3 µM (inactive)
SF-268
  GI50: 12.9 µM (inactive)
SK-MEL-5
  GI50: 15.9 µM (inactive)
SNB-75
  GI50: 14.6 µM (inactive)
TK-10
  GI50: 26.9 µM (inactive)
U-251
  GI50: 16.3 µM (inactive)
UO-31
  GI50: 28.3 µM (inactive)

## NC1=Nc2ccccc2Sc2ccccc21
EKVX
  GI50: > 100 µM (inactive)
HCT-15
  GI50: > 100 µM
HL-60
  GI50: > 100 µM (inactive)
HOP-18
  GI50: 0.912 µM (active)
LOX IMVI
  GI50: > 100 µM (inactive)
Malme-3M
  GI50: > 100 µM (inactive)
NCI-H226
  GI50: 24.4 µM (inactive)
OVCAR-4
  GI50: > 100 µM (inactive)
RPMI-8226
  GI50: 77.4 µM (inactive)
SF-268
  GI50: 56.9 µM (inactive)
SK-MEL-5
  GI50: 91.8 µM (inactive)
SNB-75
  GI50: 16.5 µM (inactive)
TK-10
  GI50: > 100 µM (inactive)
U-251
  GI50: > 100 µM (inactive)
UO-31
  GI50: 34.4 µM (inactive)

## S=C1NC(c2ccccc2)=NC(Cc2ccccc2)(c2ccccc2)N1c1ccccc1 (configuration not stated)
EKVX
  GI50: > 100 µM (inactive)
HCT-15
  GI50: > 100 µM
HL-60
  GI50: > 100 µM (inactive)
HOP-18
  GI50: 97.1 µM (inactive)
LOX IMVI
  GI50: 96.6 µM (inactive)
Malme-3M
  GI50: > 100 µM (inactive)
NCI-H226
  GI50: > 100 µM (inactive)
OVCAR-4
  GI50: 42.1 µM (inactive)
RPMI-8226
  GI50: > 100 µM (inactive)
SF-268
  GI50: > 100 µM (inactive)
SK-MEL-5
  GI50: > 100 µM (inactive)
SNB-75
  GI50: 19.7 µM (inactive)
TK-10
  GI50: > 100 µM (inactive)
UO-31
  GI50: > 100 µM (inactive)

## CCCCCCCCCCCCCP(=O)(O)NCC(N)=O
EKVX
  GI50: > 100 µM (inactive)
HCT-15
  GI50: 39.9 µM
HL-60
  GI50: 19.7 µM (inactive)
HOP-18
  GI50: 22 µM (inactive)
LOX IMVI
  GI50: 51.5 µM (inactive)
Malme-3M
  GI50: > 100 µM (inactive)
NCI-H226
  GI50: 62.4 µM (inactive)
OVCAR-4
  GI50: 28.7 µM (inactive)
RPMI-8226
  GI50: 35.1 µM (inactive)
SF-268
  GI50: 48.4 µM (inactive)
SK-MEL-5
  GI50: 61.1 µM (inactive)
SNB-75
  GI50: 17.4 µM (inactive)
TK-10
  GI50: 58.3 µM (inactive)
U-251
  GI50: 33.5 µM (inactive)
UO-31
  GI50: 27.7 µM (inactive)

## O=C(CCc1nnc2s/c(=C\c3ccc4c(c3)OCO4)c(=O)n12)Nc1cc(Cl)ccc1Cl
EKVX
  GI50: > 100 µM (inactive)
HCT-15
  GI50: > 39.8 µM
HL-60
  GI50: > 55.2 µM (inactive)
HOP-18
  GI50: > 100 µM (inactive)
LOX IMVI
  GI50: > 100 µM (inactive)
Malme-3M
  GI50: > 100 µM (inactive)
NCI-H226
  GI50: > 100 µM (inactive)
OVCAR-4
  GI50: > 100 µM (inactive)
RPMI-8226
  GI50: > 78.5 µM (inactive)
SF-268
  GI50: > 100 µM (inactive)
SK-MEL-5
  GI50: > 100 µM (inactive)
SNB-75
  GI50: > 100 µM (inactive)
TK-10
  GI50: > 100 µM (inactive)
U-251
  GI50: > 100 µM (inactive)
UO-31
  GI50: > 100 µM (inactive)

## Nc1nc[n+](Cc2ccccc2CCO)c2[nH]cnc12
EKVX
  GI50: > 100 µM (inactive)
HCT-15
  GI50: > 100 µM
HL-60
  GI50: > 100 µM (inactive)
HOP-18
  GI50: > 100 µM (inactive)
LOX IMVI
  GI50: > 100 µM (inactive)
Malme-3M
  GI50: > 100 µM (inactive)
NCI-H226
  GI50: 36.5 µM (inactive)
OVCAR-4
  GI50: > 100 µM (inactive)
RPMI-8226
  GI50: > 100 µM (inactive)
SF-268
  GI50: > 100 µM (inactive)
SK-MEL-5
  GI50: > 100 µM (inactive)
SNB-75
  GI50: > 100 µM (inactive)
TK-10
  GI50: > 100 µM (inactive)
U-251
  GI50: > 100 µM (inactive)
UO-31
  GI50: 89.3 µM (inactive)

## CN1N=CSC12C(=O)N(c1ccc(Cl)cc1)C(=O)N2c1ccc(Cl)cc1 (configuration not stated)
EKVX
  GI50: 7.14 µM (inactive)
HL-60
  GI50: 2.13 µM (inactive)
HOP-18
  GI50: 3.43 µM (inactive)
LOX IMVI
  GI50: 3.21 µM (inactive)
Malme-3M
  GI50: 3.55 µM (inactive)
NCI-H226
  GI50: 3.04 µM (inactive)
OVCAR-4
  GI50: 5.24 µM (inactive)
RPMI-8226
  GI50: 2.6 µM (inactive)
SF-268
  GI50: 5.41 µM (inactive)
SK-MEL-5
  GI50: 3.55 µM (inactive)
SNB-75
  GI50: 3.99 µM (inactive)
TK-10
  GI50: 3.84 µM (inactive)
U-251
  GI50: 3.67 µM (inactive)
UO-31
  GI50: 2.85 µM (inactive)

## COC1C(O)CC(OC2CC(OC3CC(O[C@@H]4C(=O)c5c(cc6cc(OC7CC(OC8CC(O)C(O)C(C)O8)C(O)C(C)O7)c(C)c(O)c6c5O)C[C@H]4[C@H](OC)C(=O)[C@@H](O)[C@@H](C)O)OC(C)C3O)OC(C)C2O)OC1C (some centres not stated)
BT-549
  GI50: < 10 nM (active)
EKVX
  GI50: 0.034 µM (active)
HCT-15
  GI50: 0.673 µM
HOP-18
  GI50: 0.0211 µM (active)
Hs-578T
  GI50: < 10 nM (active)
MDA-MB-231
  GI50: 57.4 nM (active)
Malme-3M
  GI50: < 0.0126 µM (active)
NCI-H226
  GI50: < 0.104 µM (active)
OVCAR-4
  GI50: 0.0671 µM (active)
RPMI-8226
  GI50: < 0.01 µM (active)
SF-268
  GI50: 0.0141 µM (active)
SK-MEL-5
  GI50: < 0.0138 µM (active)
SNB-75
  GI50: < 0.0331 µM (active)
T47D
  GI50: < 10 nM (active)
TK-10
  GI50: 0.0431 µM (active)
U-251
  GI50: 0.0112 µM (active)
UO-31
  GI50: 0.0318 µM (active)
